According to ChEMBL document CHEMBL5055666, “Tyrosine-Derived Novel Benzoxazine Active in a Rat Syngenic Mammary Tumor Model of Breast Cancer” (J Med Chem, 2021):

Columns and labels:
[1] = tested on: MCF7; test: Antiproliferative activity against human MCF7 cells assessed as inhibition of cell growth incubated for 24 hrs by MTT assay; type: functional, cell-based; conditions: MCF7, 24 h
[2] = tested on: MDA-MB-231; test: Antiproliferative activity against human MDA-MB-231 cells assessed as inhibition of cell growth incubated for 24 hrs by MTT assay; type: functional, cell-based; conditions: MDA-MB-231, 24 h
[3] = tested on: Rattus norvegicus; test: Toxicity in Sprague-Dawley rat inoculated with rat LA7 cells assessed as increase in uterine tissue at 10 mg/kg administered daily for 21 days; type: organism-based; conditions: in vivo, 504 h, time 21 day

IC50 [1] [µM]	IC50 [2] [µM]	Structure (SMILES)	Activity [3]
5.05	4.86	COc1ccc(C[C@H]2COc3cc(F)c(F)cc3N2Cc2ccc(OCCN3CCCCC3)cc2)cc1	
3.34	3.59	COc1ccc(C[C@H]2COc3ccc(OC)cc3N2Cc2ccc(OCCN3CCCC3)cc2)cc1	
6.3	4.87	COc1ccc(C[C@@H]2COc3ccccc3N2Cc2ccc(OCCN3CCCCC3)cc2)cc1	
5.5	> 50	COc1ccc(C[C@H]2COc3ccccc3N2Cc2ccc(OCCOCCN(C(C)C)C(C)C)cc2)cc1	
> 50	> 50	CN(C)CCOc1ccc(C[C@H]2COc3ccccc3N2C)cc1	
6.86	6.89	COc1ccc(C[C@H]2COc3ccc(C(F)(F)F)cc3N2Cc2ccc(OCCN3CCCC3)cc2)cc1	
> 50	> 50	COc1ccc(C[C@H]2COc3ccccc3N2C)cc1	
7.81	> 50	COc1ccc(C[C@H]2COc3ccccc3N2Cc2ccc(OCCOCCN3CCCCC3)cc2)cc1	
21.3	> 50	COc1ccc(C[C@H]2COc3ccccc3N2Cc2ccc(OCCOCCN3CCCC3)cc2)cc1	
18.1	10.1	COc1ccc(C[C@H]2COc3ccccc3N2Cc2ccc(OCCN3CCCCCC3)cc2)cc1	
22	> 50	c1ccc(CN2c3ccccc3OC[C@@H]2Cc2ccc(OCCN3CCCCC3)cc2)cc1	
45.8	> 50	CCN1c2ccccc2OC[C@@H]1Cc1ccc(OCCN2CCCC2)cc1	
5.4		CC/C(=C(\c1ccccc1)c1ccc(OCCN(C)C)cc1)c1ccccc1 [TAMOXIFEN]	Toxic
3.34	3.23	COc1ccc(C[C@H]2COc3ccc(F)cc3N2Cc2ccc(OCCN3CCCC3)cc2)cc1	
24.4	40.2	COc1ccc(C[C@H]2COc3ccccc3N2Cc2ccc(O)cc2)cc1	
3.35	3.22	COc1ccc(C[C@H]2COc3cc(F)c(F)cc3N2Cc2ccc(OCCN3CCCC3)cc2)cc1	
> 50	36.4	COc1ccc(C[C@H]2COc3ccccc3N2)cc1	
	3.77	CC(=O)O[C@H]1C(=O)[C@@]2(C)[C@H]([C@H](OC(=O)c3ccccc3)[C@]3(O)C[C@H](OC(=O)[C@H](O)[C@@H](NC(=O)c4ccccc4)c4ccccc4)C(C)=C1C3(C)C)[C@]1(OC(C)=O)CO[C@@H]1C[C@@H]2O [PACLITAXEL]	
> 50	47.4	Oc1ccc(C[C@H]2COc3ccccc3N2)cc1	
21.1	> 50	c1ccc(CN2c3ccccc3OC[C@@H]2Cc2ccc(OCCN3CCCC3)cc2)cc1	
0.68	11	COc1ccc(C[C@H]2COc3ccccc3N2Cc2ccc(OCCN3CCCCC3)cc2)cc1	
30.8	10.9	COc1ccc(C[C@H]2CSc3ccccc3N2Cc2ccc(OCCN3CCCC3)cc2)cc1	
41.6	32.5	Oc1ccc(C[C@H]2COc3ccccc3N2Cc2ccccc2)cc1	
24.4	40.2	Oc1ccc(C[C@H]2COc3ccccc3N2Cc2ccc(O)cc2)cc1	
77.6	0.83	COc1ccc(C[C@H]2COc3ccccc3N2Cc2ccc(OCCN(C(C)C)C(C)C)cc2)cc1	

More lines, now with the values behind:

Structure (SMILES)	IC50 [1] [µM]	IC50 [2] [µM]	Activity [3]
CC(C)N(CCOc1ccc(C[C@H]2COc3ccccc3N2Cc2ccccc2)cc1)C(C)C	40.4	> 50	
COc1ccc(C[C@H]2COc3ccc(C(F)(F)F)cc3N2Cc2ccc(OCCN3CCCCC3)cc2)cc1	6.1	6.36	
CN1c2ccccc2OC[C@@H]1Cc1ccc(OCCN2CCCC2)cc1	> 50	> 50	
CN1c2ccccc2OC[C@@H]1Cc1ccc(OCCN2CCCCC2)cc1	> 50	> 50	
CCN(CC)CCOCCOc1ccc(CN2c3ccccc3OC[C@@H]2Cc2ccc(OC)cc2)cc1	39.1	45	
COc1ccc(C[C@H]2COc3ccccc3N2C(=O)c2ccc(N)cc2)cc1	> 50	> 50	
COc1ccc(C[C@H]2COc3ccc(F)cc3N2Cc2ccc(OCCN3CCCCC3)cc2)cc1	3.61	2.92	
CN(C)CCOc1ccc(C[C@H]2COc3ccccc3N2Cc2ccccc2)cc1	20.5	> 50	
COc1ccc(C[C@H]2COc3ccc(OC)cc3N2Cc2ccc(OCCN3CCCCC3)cc2)cc1	2.6	2.64	
COc1ccc(C[C@H]2CSc3ccccc3N2Cc2ccc(OCCN3CCCCC3)cc2)cc1	17.4	12.2	
COc1ccc(C[C@@H]2COc3ccccc3N2Cc2ccc(OCCN3CCCC3)cc2)cc1	7.03	6.52	
COc1ccc(C[C@H]2COc3ccccc3N2Cc2ccccc2)cc1	> 50	> 50	
CCN(CC)CCOc1ccc(CN2c3ccccc3OC[C@@H]2Cc2ccc(OC)cc2)cc1	6.95	0.97	
COc1ccc(C[C@H]2COc3ccccc3N2Cc2ccc(OS(=O)(=O)c3ccc(C)cc3)cc2)cc1	> 50	> 50	
CCN1c2ccccc2OC[C@@H]1Cc1ccc(O)cc1	30.4	43.6	
CCN(CC)CCOc1ccc(CN2c3ccccc3SC[C@@H]2Cc2ccc(OC)cc2)cc1	31.7	26.7	
COc1ccc(C[C@H]2COc3ccccc3N2Cc2ccc(OCCO)cc2)cc1	43.7	> 50	
COc1ccc(C[C@H]2COc3ccccc3N2Cc2ccc(OCCN3CCOCC3)cc2)cc1	83.6	31.3	
COc1ccc(C[C@H]2CSc3ccccc3N2Cc2ccc(OCCN(C(C)C)C(C)C)cc2)cc1	> 50	> 50	
COc1ccc(C[C@H]2COc3ccccc3N2Cc2ccc(OCCN(C)C)cc2)cc1	6.75	11.1	
COc1ccc(C[C@H]2CSc3ccccc3N2Cc2ccc(OCCN(C)C)cc2)cc1	28.8	25.5	
